Legend:
[1] = tested on: pS6K1 (p-p70 S6 Kinase (Thr389)) in MCF-7 cells; assay: AlphaLISA Ultra pS6K1 assay; format: cell-based; conditions: Homo sapiens, MCF7, 2 h, 2 hours compound incubation
Experimental: Example 155: AlphaLISA Ultra pS6K1 assay
(§1) Assay Protocol: • 1. Seed MCF-7 cells in Corning 3701 plate and incubate for 20˜24 hour. 12,000˜16,000 cells will be seeded in 36 μL medium per well. • 2. Change the culture medium with fresh medium and incubate for another 2 hours. • 3. Add 12 μL (4×) compounds into the cell plate by HAMILTON. Final DMSO concentration is 0.5%. Incubate for 2 hours. • 4. Aspirate 38 μL by HAMILTON, 10 μL rest per well. • 5. Add 10 μL 2× lysis buffer using HAMILTON; total volume in wells is 20 μL. Allow cells to shake for 30 min. Cover plate by plastic foil and store plate at −80° C. up to analysis. • 6. Thaw cell lysate at RT and transfer 10 ul lysate to assay plate (Optiplate-384). • 7. Add 5 ul acceptor beads into assay plate and incubation for 2 hours • 8. Add 5 ul donor beads and incubation for 2 hours • 9. Count the plate by EnSpire Multimode Plate Reader

[2] = tested on: pAKT (p-Akt 1/2/3 (Ser473)) in MCF-7 cells; assay: AlphaLISA Ultra pAKT assay; format: cell-based; conditions: Homo sapiens, MCF7, 2 hours compound incubation
Experimental: Example 156: AlphaLISA Ultra pAKT Assay
as §1, with “1.” for “1. Seed”, “for 20-24” for “for 20˜24”, “hour. 16,000-20,000” for “hour. 12,000˜16,000”, “38 j L” for “38 μL”

IC50 [1] [nM] | IC50 [2] [nM] | Compound
3000 to 5000 | > 10000 | Cc1cccc(N2CCN(C(=O)c3cc(NC4CCN(c5ccccc5Cl)CC4)c(C)cc3C)CC2)n1 [I-35, (5-(1-(2-chlorophenyl)piperidin-4-ylamino)-2,4-dimethylphenyl) (4-(6-methylpyridin-2-yl)piperazin-1-yl) methanone]
5000 to 10000 | > 10000 | Cc1cc(C)c(C(=O)N2CCN(c3ccc(F)cn3)CC2)cc1NC1CCN(c2ccccc2Cl)CC1 [I-36, (5-(1-(2-Chlorophenyl)piperidin-4-ylamino)-2,4-dimethylphenyl)(4-(5-fluoropyridin-2-yl)piperazin-1-yl)methanone]
1000 to 3000 | > 10000 | Cc1cc(C)c(C(=O)N2CCN(c3ccccc3C#N)CC2)cc1NC1CCN(c2ccccc2Cl)CC1 [I-37, 2-(4-(5-(1-(2-Chlorophenyl)piperidin-4-ylamino)-2,4-dimethylbenzoyl)piperazin-1-yl)benzonitrile]
> 10000 | > 10000 | Cc1cc(C)c(C(=O)N2CCN(c3ccccc3)C(C(=O)O)C2)cc1NC1CCN(c2ccccc2C#N)CC1 (centres unmarked) [I-39, 4-(5-{[1-(2-cyanophenyl)piperidin-4-yl]amino}-2,4-dimethylbenzoyl)-1-phenylpiperazine-2-carboxylic Acid]
10 to 1000 | > 10000 | Cc1cc(C)c(C(=O)N2CCN(c3ccccc3S(N)(=O)=O)CC2)c(C)c1NC1CCN(c2ccccc2C#N)CC1 [I-42]
1000 to 3000 | > 10000 | C=CCN(c1cc(C(=O)N2CCN(c3ccccc3S(N)(=O)=O)CC2)c(C)cc1C)C1CCN(c2ccccc2C#N)CC1 [I-46, 2-(4-(5-(Allyl(1-(2-cyanophenyl)piperidin-4-yl)amino)-2,4-dimethylbenzoyl)piperazin-1-yl)benzenesulfonamide]
1000 to 3000 | > 10000 | Cc1cc(C)c(C(=O)N2CCN(c3ccccc3)[C@H](C)C2)cc1NC1CCN(c2ccccc2C#N)CC1 [I-47, (R)-2-(4-(2,4-Dimethyl-5-(3-methyl-4-phenylpiperazine-1-carbonyl)phenylamino)piperidin-1-yl)benzonitrile]
1000 to 3000 | > 10000 | CCN(c1cc(C(=O)N2CCN(c3ccccc3S(N)(=O)=O)CC2)c(C)cc1C)C1CCN(c2ccccc2C#N)CC1 [I-51, 2-(4-(5-((1-(2-Cyanophenyl)piperidin-4-yl)(ethyl)amino)-2,4-dimethylbenzoyl)piperazin-1-yl)benzenesulfonamide]
> 10000 | > 10000 | Cc1cc(C)c(C(=O)N2CCN(c3ccccc3S(N)(=O)=O)CC2)cc1NC1CCN(c2ccccc2C#N)CC1(C)C (centres unmarked) [I-52, 2-(4-(5-(1-(2-Cyanophenyl)-3,3-dimethylpiperidin-4-ylamino)-2,4-dimethylbenzoyl)piperazin-1-yl)benzenesulfonamide]
10 to 1000 | > 10000 | Cc1cc(C)c(C(=O)N2CCN(c3ccccc3C#N)[C@@H](CO)C2)cc1NC1CCN(c2ccccc2C#N)CC1 [I-53]
1000 to 3000 | > 10000 | Cc1cc(C)c(C(=O)N2CCN(c3ccccc3)[C@@H](CO)C2)cc1NC1CCN(c2ccccc2)CC1 [I-54]
1000 to 3000 | > 10000 | Cc1cc(C)c(C(=O)N2CCN(c3ccccn3)CC2)cc1NC1CCN(c2ccccc2C#N)CC1 [I-55]
1000 to 3000 | > 10000 | Cc1cc(C)c(C(=O)N2CCN(c3ccccc3C#N)CC2)cc1NC1CCN(c2ccccc2)CC1 [I-56]
1000 to 3000 | > 10000 | Cc1cc(C)c(C(=O)N2CCN(c3ccccc3)CC2)cc1NC1CCN(c2ccccc2C#N)CC1 [I-57]
10 to 1000 | > 10000 | CNC(=O)C1CN(C(=O)c2cc(N(C)C3CCN(c4ccccc4C#N)CC3)c(C)cc2C)CCN1c1ccccc1 (centres unmarked) [I-58]
3000 to 5000 | > 10000 | Cc1cc(C)c(N(C)C2CCN(c3ccccc3C#N)CC2)cc1C(=O)N1CCN(c2ccccc2S(N)(=O)=O)CC1 [I-59]

Reference: patent US10844013B2, “Phenyl amino piperidine mTORC inhibitors and uses thereof” (Navitor Pharmaceuticals, Inc., priority 2016, dated 2020)
